{
  "source": "paper PMC9046208",
  "about": "“Foldamers reveal and validate therapeutic targets associated with toxic α-synuclein self-assembly” (Nature Communications, 2022)",
  "key": {"[1]": {"tested_on": "primary rat hippocampal neurons", "test": "LDH release assay, primary rat hippocampal neurons", "type": "cell-based", "details": "PD + SK-129 PMCA sample, 21 days; PD sample ~8-fold higher than control", "method": "The rat embryos (both male and female) at embryonic day 18 were used to prepare the primary neurons according to previously published protocol. After removing all the meninges, the hippocampi were isolated from the fetal rat brain and kept in the dissection solution (1x HBSS, 10 mM HEPES buffer, 5 µg/mL Gentamicin, pH 7.3, Thermo Fisher Scientific, Waltham, MA). The hippocampi were minced and treated in the dissection solution containing 20 U/ml Papain (Worthington Biochemical Corp., Lakewood, NJ) and triturated in 50 µg/ml Dnase I (Sigma-Aldrich, St.Louis, MO). The isolated cells were plated on 1 mg/mL Poly-L-Lysine (Sigma-Aldrich, St.Louis, MO) coated μ-slide eight-well plate (Ibidi, Munich, Germany) at 200,000 cells/mL in neuron plating medium, which includes Minimum Essential Media (MEM)(Thermo Fisher Scientific, Waltham, MA) supplemented with 5% FBS (Thermo Fisher Scientific, Waltham, MA) and glucose (Sigma-Aldrich, St.Louis, MO). […]\nThe LDH assay was performed on the primary neurons treated with various conditions and incubated for 21 DIV. The release of LDH was measured using a Cytotox 96 Non-Radioactive Cytotoxicity Assay kit (Promega, Madison, WI) by following the instructions provided by the manufacturers. […] The absorbance of the media in the wells was measured at 490 nm using a 96-well plate reader."}, "[2]": {"tested_on": "HEK cells expressing αS-A53T-YFP", "test": "MTT viability of HEK cells treated with PMCA samples / PD fibrils", "type": "cell-based", "details": "for Relative cell viability (Supp. Figure 27): HEK cells, PD+SK-129", "method": "The HEK293 cells that stably express αS-A53T-YFP and αS-YFP were grown in DMEM with 10% FBS and 1% pen/strep and cultured in an incubator at 37 °C and 5% CO2(g). A total of 60,000 cells per well in 300 µL media were plated in a µ-slide eight-well plate (Ibidi, Munich, Germany) and incubated for 24 h to adhere to the plate. […] Next, the plate was incubated for 24 h, followed by the addition of 30 µL of 1x PBS buffer containing MTT dye (in 1x PBS buffer, 5 mg/mL) to each well. The plates were wrapped in aluminum foil and incubated for 3 h. After 3 h, all liquid was aspirated carefully without disturbing the formazan crystals. To each well, 300 µL of DMSO was added to dissolve the crystals. Once dissolved, the DMSO solution was transferred to a clear 96-well plate (100 µL/well). The absorbance was read on a 96-well plate reader at 570 nm. The cytotoxicity of the HEK cells was monitored for up to 4 days.\nThe seeds were generated by aggregating recombinant αS (100 µM) in the absence and presence of SK-129 at an equimolar ratio under the ThT aggregation kinetic conditions for seven days. In the case of seeds from the brain, we used a PMCA sample (5th cycle) generated from the brain seeds in the absence and presence of SK-129 at an equimolar ratio.\nSupplementary Fig. 27. Effect of SK-129 on the PD fibrils catalyzed aggregation of αS templated by PMCA technique. a, The representative confocal images of HEK cells after treatment with PMCA samples from the PD and control brain. The green color images are due to the intracellularly expressed αSA53T-YFP. The αSA53T-YFP inclusions, αS-pS-129, and DAPI are represented by green, red, and blue colors. The αSA53T-YFP inclusions are indicated by white arrows. b, The αSA53T-YFP inclusions, P62, and DAPI are represented by green, red, and blue colors. The αSA53T-YFP inclusions are indicated by white arrows. c, The statistical analysis of the relative viability of HEK cells treated with the indicated conditions for 24 h determined using the MTT-reduction toxicity assay. The data were expressed as mean and the error bars report the s.e.m.\n(n = 4 independent cell viability experiments and each n consisted of 4 technical replicates). The statistical analysis was performed using ANOVA with Tukey’s multiple comparison test. *p<0.05, **p<0.01, ***p<0.001, ****p<0.0001. Source data are provided as a Source Data file."}, "αS oligomers": {"biological_target": "T1, αS oligomers (Homo sapiens, UniProt P37840)", "T1 construct": "made in house; host or cells: Escherichia coli BL21(DE3), periplasm", "test": "Gel shift assay of αS supernatant (oligomers)", "type": "biochemical", "details": "70 µM αS, 0.1, 0.2, 0.5 mol eq. ligand, 7 days", "method": "Supplementary Fig. 8. Gel-shift images of αS (70 µM) incubated in the absence (lane 2) and presence of SK-129 (a) and EGCG (b) at sub-stoichiometric ratios (0.1, 0.2, 0.5 mol eq.) for 7 days at 370C with constant shaking. The solutions of αS in the absence and presence of ligands were centrifuged and the supernatant was used for the gel shift assay. The arrows indicate the formation of various αS structures. The gel shift assay of the supernatant of the αS aggregated […]\nfibers. Most of the αS was found in the supernatant as a mo nomer and a dimer in the presence of […]\ntheir formation. The gel experiments were conducted at least two times to confirm the reproducibility of the data.\n(1 picture or pasted object on this page, not shown here)"}},
  "data": [
    {"smiles": "COC(=O)c1cc(OCC(=O)O)c2cccc(NC(=O)c3cc(OC(C)C)c4cccc(NC(=O)c5cc(OCC(=O)O)c6cccc(NC(=O)c7cc(OC(C)C)c8cccc([N+](=O)[O-])c8n7)c6n5)c4n3)c2n1", "note": "[SK-129]", "values": [
      {"measurement": "neurotoxicity (LDH release)", "setting": "[1]", "result": "did not observe any significant neurotoxicity"},
      {"measurement": "Relative cell viability (Supp. Figure 27)", "setting": "[2]; trial 1", "result": 0.879},
      {"measurement": "Relative cell viability (Supp. Figure 27)", "setting": "[2]; trial 2", "result": 0.798},
      {"measurement": "Relative cell viability (Supp. Figure 27)", "setting": "[2]; trial 3", "result": 0.821},
      {"measurement": "Relative cell viability (Supp. Figure 27)", "setting": "[2]; trial 4", "result": 0.823},
      {"measurement": "Relative cell viability (Supp. Figure 27)", "setting": "[2]; trial 5", "result": 0.659},
      {"measurement": "Relative cell viability (Supp. Figure 27)", "setting": "[2]; trial 6", "result": 0.702},
      {"measurement": "Relative cell viability (Supp. Figure 27)", "setting": "[2]; trial 7", "result": 0.735},
      {"measurement": "Relative cell viability (Supp. Figure 27)", "setting": "[2]; trial 8", "result": 0.834},
      {"measurement": "Relative cell viability (Supp. Figure 27)", "setting": "[2]; trial 9", "result": 0.865},
      {"measurement": "Relative cell viability (Supp. Figure 27)", "setting": "[2]; trial 10", "result": 0.808},
      {"measurement": "Relative cell viability (Supp. Figure 27)", "setting": "[2]; trial 11", "result": 0.853},
      {"measurement": "Relative cell viability (Supp. Figure 27)", "setting": "[2]; trial 12", "result": 0.884},
      {"measurement": "Relative cell viability (Supp. Figure 27)", "setting": "[2]; trial 13", "result": 0.902},
      {"measurement": "Relative cell viability (Supp. Figure 27)", "setting": "[2]; trial 14", "result": 0.783},
      {"measurement": "Relative cell viability (Supp. Figure 27)", "setting": "[2]; trial 15", "result": 0.732},
      {"measurement": "Relative cell viability (Supp. Figure 27)", "setting": "[2]; trial 16", "result": 0.693},
      {"measurement": "cell viability of HEK cells", "setting": "[2]; PD fibrils+SK-129, 24 h, MTT, PD fibrils alone 50.5 ± 5.4%", "result": "85.6 ± 7.8", "unit": "%"},
      {"measurement": "αS species in gel shift assay", "setting": "αS oligomers", "result": "potently inhibits αS aggregation"}
    ]}
  ]
}
